From patent US20080182895A1 (priority 2006, published 2008)
Converted amounts (≈) assume the structure as drawn.

Legend:
[1] = system: 1b, BB7-M414T replicon; experiment: Replicon variant 3-day assay; format: cell-based, Hepatitis C virus
Experimental: (§1) pBB7-replicon variant DNAs were linearized with Sca I, and in vitro transcription was performed using Ambion's […]® T7 High Yield Transcription kit (Austin, Tex.). Purified RNA transcripts were electroporated into Huh-7 cells in quadruplicates using a Biorad GENE PULSER® Electroporation System (Setting: 270V, 950 μF) (Hercules, Calif.). Stably transfected replicon variant cell lines were initially selected with 0.25 mg/ml G418 and stepped up to 1 mg/ml before further testing. One cell plate was stained with Crystal Violet to visualize the number of colonies and determine the colony formation efficiency. Individual cell clones from each plate were pooled and expanded for drug susceptibility testing.
(§2) The contribution of individual amino acid changes on drug resistance was assessed in replicon variants containing single amino acid mutations in NS5B in the background of the genotype 1b, BB7 adaptive replicon (Blight et al. (2000) Science 290:1972-74).
(§3) Drug susceptibility of the replicon-containing cells to various compounds was evaluated as described previously (Howe et al. (2004) Antimicrobial Agents Chem. 48:4813-21). Briefly, cells were treated with increasing concentrations of compounds in medium containing 2% FCS and no G418 for three days at 37° C. and 5% CO2. After incubation, total RNA from the replicon-containing cells was isolated. The levels of HCV, glyceraldehyde 3-phosphate dehydrogenase (GAPDH) and ribosomal (rRNA) RNAs were quantified using TAQMAN® (PE Applied Biosystems, Foster City, Calif.) reverse transcriptase PCR reactions. The amounts of HCV, 18S ribosomal, and GAPDH RNAs in each sample were estimated by comparing the number of cycles during the exponential phase of the PCR amplification with those in the corresponding standard curves. HCV RNA standards used for the construction of the standard curve were prepared by extracting the total RNA from the Clone A cells. The RNA sample was sent to National Genetics Institute to quantify HCV RNA. Total RNA extracted from Clone A cells was quantified by O.D.260 measurement and used for construction of the standard curves of rRNA and GAPDH. The concentrations of the compounds that inhibit 50% of the HCV RNA level (EC50) were determined using the MDL® LIFE SCIENCE WORKBENCH® (LSW) Data Analysis software (MDL Information Systems, San Leandro, Calif.) in Microsoft EXCEL®. The amounts of HCV or GAPDH RNAs in the samples were expressed as HCV RNA (copies) or GAPDH (ng), respectively, per μg of total RNA using rRNA as a marker for total RNA measurement.

[2] = system: 1b, BB7-S365A replicon; experiment: Replicon variant 3-day assay; format: cell-based, Hepatitis C virus
Experimental: as §1, §2, §3

[3] = system: 1b, BB7-M414V replicon; experiment: Replicon variant 3-day assay; format: cell-based, Hepatitis C virus
Experimental: as §1, §2, §3

[4] = system: 1b, BB7-M414I replicon; experiment: Replicon variant 3-day assay; format: cell-based, Hepatitis C virus
Experimental: as §1, §2, §3

[5] = system: 1b, BB7-C316F replicon; experiment: Replicon variant 3-day assay; format: cell-based, Hepatitis C virus
Experimental: as §1, §2, §3

[6] = system: 1b, BB7-L314F replicon; experiment: Replicon variant 3-day assay; format: cell-based, Hepatitis C virus
Experimental: as §1, §2, §3

[7] = system: 1b, BB7-I363V replicon; experiment: Replicon variant 3-day assay; format: cell-based, Hepatitis C virus
Experimental: as §1, §2, §3

[8] = system: 1b, BB7-S368F replicon; experiment: Replicon variant 3-day assay; format: cell-based, Hepatitis C virus
Experimental: as §1, §2, §3

[9] = system: 1b, BB7-C316Y replicon; experiment: Replicon variant 3-day assay; format: cell-based, Hepatitis C virus; details: 1b
Experimental: as §1, §2, §3

[10] = system: 1b, BB7-C316S replicon; experiment: Replicon variant 3-day assay; format: cell-based, Hepatitis C virus
Experimental: as §1, §2, §3

[11] = system: 1b, BB7-S365T replicon; experiment: Replicon variant 3-day assay; format: cell-based, Hepatitis C virus
Experimental: as §1, §2, §3

[12] = physchem; details: plasma or biological fluid
[13] = system: recombinant genotype 1b HCV NS5B enzyme variants; experiment: NS5B polymerase biochemical assay, several enzymes taken together; set-up: species or system Hepatitis C virus genotype 1b
Experimental: All NS5B enzymes were expressed and purified according to the protocol for NS5B-BB7dCT21-His as described (Howe et al. (2004) Antimicrobial Agents Chem. 48:4813-21). Briefly, expression plasmids were transformed into E. coli cells and NS5B expression was initiated by the addition of isopropyl-beta-D-thiogalactopyranoside (IPTG). After 4 to 6 hours of incubation the cells were harvested and lysed. NS5B enzymes were purified by chromatography using a nickel affinity column (Talon, B D Biosciences, Clontech Laboratories, Inc., Mountain View, Calif.)) followed by a cation exchange column (Poros H S, Applied Biosystems, Foster City, Calif.).

[14] = system: 1b, BB7-C316N replicon; experiment: Replicon variant assay (separate laboratory); format: cell-based; details: Hepatitis C virus, read-out: HCV RNA EC50 (nM) ± SD
Experimental: as §1, with “Individual cell clones from each plate were pooled and expanded for drug susceptibility testing.” left out
as §2
Drug susceptibility of the replicon-containing cells to various compounds was evaluated as described previously (Howe et al. (2004) Antimicrobial Agents Chem. 48:4813-21). […] The levels of HCV, glyceraldehyde 3-phosphate dehydrogenase (GAPDH) and ribosomal (rRNA) RNAs were quantified using TAQMAN® (PE Applied Biosystems, Foster City, Calif.) reverse transcriptase PCR reactions. […] The RNA sample was sent to National Genetics Institute to quantify HCV RNA. […]

In the case of `CNC(=O)c1c(-c2ccc(F)cc2)oc2cc(N(CCO)S(C)(=O)=O)c(C3CC3)cc12` [HCV-796, 5-cyclopropyl-2-(4-fluorophenyl)-6-[(2-hydroxyethyl)(methylsulfonyl)amino]-N-methyl-1-benzofuran-3-carboxamide], the “Fold Resistance” value ([1]; 1b, BB7-M414T vs 1b, BB7) is reported as 1 fold, the “Viral Load Reduction” value ([1]; 1b, BB7-M414T, 2240 nM HCV-796, 3-day assay) is reported as 2.0 ± 0.2 log and the “change of susceptibility to HCV-796 (in words)” value ([1]; M414T replicon vs wild type) is reported as “did not change the susceptibility”. For the same molecule, the “Fold Resistance” value ([2]; BB7-S365A vs 1b, BB7) was 41 fold, the “Viral Load Reduction” value ([2]; BB7-S365A, 2240 nM HCV-796, 3-day assay) was 1.7 ± 0.1 log and the EC50 ([2]; Hepatitis C virus, 72 h, BB7-S365A, 3-day assay, read-out: HCV RNA EC50 (nM) ± SD) was 124 ± 41 nM. The “Fold Resistance” value ([3]; BB7-M414V vs 1b, BB7) was 3 fold, the “Viral Load Reduction” value ([3]; BB7-M414V, 2240 nM HCV-796, 3-day assay) was 1.5 ± 0.1 log and the EC50 ([3]; Hepatitis C virus, 72 h, BB7-M414V, 3-day assay, read-out: HCV RNA EC50 (nM) ± SD) was 8 ± 1 nM. The “Fold Resistance” value ([4]; BB7-M414I vs 1b, BB7) was 8 fold, the “Viral Load Reduction” value ([4]; BB7-M414I, 2240 nM HCV-796, 3-day assay) was 1.5 ± 0.2 log and the EC50 ([4]; Hepatitis C virus, 72 h, BB7-M414I, 3-day assay, read-out: HCV RNA EC50 (nM) ± SD) was 23 ± 3 nM. The “Fold Resistance” value ([5]; BB7-C316F vs 1b, BB7) was 130 fold, the “Viral Load Reduction” value ([5]; BB7-C316F, 2240 nM HCV-796, 3-day assay) was 0.8 ± 0.5 log and the EC50 ([5]; Hepatitis C virus, 72 h, BB7-C316F, 3-day assay, read-out: HCV RNA EC50 (nM) ± SD) was 392 nM. The “Fold Resistance” value ([6]; 1b, BB7-L314F vs 1b, BB7) was 1 fold, the “Viral Load Reduction” value ([6]; 1b, BB7-L314F, 2240 nM HCV-796, 3-day assay) was 1.6 ± 0.3 log and the EC50 ([6]; Hepatitis C virus, 72 h, 1b, BB7-L314F, 3-day assay, read-out: HCV RNA EC50 (nM) ± SD) was 4 ± 2 nM. For the same molecule, the “change of susceptibility to HCV-796 (in words)” value ([6]; L314F replicon vs wild type) was “did not change the susceptibility”, the “Fold Resistance” value ([7]; BB7-I363V vs 1b, BB7) was 5 fold and the “Viral Load Reduction” value ([7]; BB7-I363V, 2240 nM HCV-796, 3-day assay) was 1.4 ± 0.1 log. The EC50 ([7]; Hepatitis C virus, 72 h, BB7-I363V, 3-day assay, read-out: HCV RNA EC50 (nM) ± SD) was 16 ± 5 nM, the “Fold Resistance” value ([8]; BB7-S368F vs 1b, BB7) was 2 fold and the “Viral Load Reduction” value ([8]; BB7-S368F, 2240 nM HCV-796, 3-day assay) was 1.4 ± 0.3 log. The EC50 ([8]; Hepatitis C virus, 72 h, BB7-S368F, 3-day assay, read-out: HCV RNA EC50 (nM) ± SD) was 5 ± 2 nM, the “Fold Resistance” value ([9]; BB7-C316Y vs 1b, BB7) was 166 fold and the “Viral Load Reduction” value ([9]; BB7-C316Y, 2240 nM HCV-796, 3-day assay) was 0.9 ± 0.2 log. For the same molecule, the EC50 ([9]; Hepatitis C virus, 72 h, BB7-C316Y, 3-day assay, read-out: HCV RNA EC50 (nM) ± SD) was 501 nM, the “Fold Resistance” value ([10]; BB7-C316S vs 1b, BB7) was 10 fold and the “Viral Load Reduction” value ([10]; BB7-C316S, 2240 nM HCV-796, 3-day assay) was 1.3 ± 0.1 log. The EC50 ([10]; Hepatitis C virus, 72 h, BB7-C316S, 3-day assay, read-out: HCV RNA EC50 (nM) ± SD) was 30 nM, the “Fold Resistance” value ([11]; BB7-S365T vs 1b, BB7) was 212 fold and the “Viral Load Reduction” value ([11]; BB7-S365T, 2240 nM HCV-796, 3-day assay) was 0.6 ± 0.1 log. The EC50 ([11]; Hepatitis C virus, 72 h, BB7-S365T, 3-day assay, read-out: HCV RNA EC50 (nM) ± SD) was 643 ± 168 nM, the solubility [12] was 56 µM (≈ 25 µg/mL) and the “difference in drug susceptibility (in words)” value ([13]; M414V/I and I363V enzyme variants vs wild type enzyme) was “no appreciable difference in drug susceptibility”. For the same molecule, the “susceptibility of Asn316 enzymes compared with Cys316 enzymes (in words)” value ([13]; NS5B enzymes of genotype 1b isolates BK and J4, data not shown) was “less susceptible” and the EC50 [14] was 220 ± 110 nM.
